Calls of active or inactive are those of the source.

Assay [1] deals with T1, Oxysterols receptor LXR-beta (Homo sapiens, UniProt P55055).
T1 sequence (P55055 whole entry): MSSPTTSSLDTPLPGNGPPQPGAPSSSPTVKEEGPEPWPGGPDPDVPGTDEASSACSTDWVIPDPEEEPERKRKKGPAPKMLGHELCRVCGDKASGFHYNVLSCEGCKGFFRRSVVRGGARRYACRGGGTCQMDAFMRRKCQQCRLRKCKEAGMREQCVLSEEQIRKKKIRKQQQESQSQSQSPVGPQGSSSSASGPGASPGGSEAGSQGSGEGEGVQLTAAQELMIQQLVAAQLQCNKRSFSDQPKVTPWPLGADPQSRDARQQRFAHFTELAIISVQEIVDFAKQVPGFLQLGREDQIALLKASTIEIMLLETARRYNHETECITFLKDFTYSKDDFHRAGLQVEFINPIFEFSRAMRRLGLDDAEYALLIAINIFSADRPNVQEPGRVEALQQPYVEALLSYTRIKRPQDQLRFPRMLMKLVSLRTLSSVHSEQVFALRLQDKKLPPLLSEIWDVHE
It is filed as functional, cell-based.

In assay [2] the target is Neuropeptides B/W receptor type 1 (Homo sapiens, UniProt P48145). Kind of assay: Fluorescence-based dose response cell-based high throughput screening assay to identify antagonists of the G-protein coupled receptor 7 (GPR7). [Related pubchem assays: 1952 (Screening assay (GPR7 antagonists).), 1880 (Summary AID.)]. The assay is classed as functional.
Assay [3] addresses Melanin-concentrating hormone receptor 1 (Homo sapiens, UniProt Q99705). Put plainly: Fluorescence-based counterscreen for antagonists of the G-protein coupled receptor 7 (GPR7): cell-based high throughput dose response assay to identify antagonists of the melanin-concentrating hormone receptor 1 (MCHR1). The assay is classed as functional. In general terms: Counterscreens check selectivity or assay interference.

For assay [4], the target named is T2, Dual specificity protein phosphatase 3 (Homo sapiens, UniProt P51452). Put plainly: VHR1 inhibitor Ki determination, SAR follow-up, biochemical, colorimetric (AID 2004).
Assay [5] concerns the target T3, Tyrosine-protein phosphatase non-receptor type 7 (Homo sapiens, UniProt P35236).
T3 sequence (P35236 whole entry): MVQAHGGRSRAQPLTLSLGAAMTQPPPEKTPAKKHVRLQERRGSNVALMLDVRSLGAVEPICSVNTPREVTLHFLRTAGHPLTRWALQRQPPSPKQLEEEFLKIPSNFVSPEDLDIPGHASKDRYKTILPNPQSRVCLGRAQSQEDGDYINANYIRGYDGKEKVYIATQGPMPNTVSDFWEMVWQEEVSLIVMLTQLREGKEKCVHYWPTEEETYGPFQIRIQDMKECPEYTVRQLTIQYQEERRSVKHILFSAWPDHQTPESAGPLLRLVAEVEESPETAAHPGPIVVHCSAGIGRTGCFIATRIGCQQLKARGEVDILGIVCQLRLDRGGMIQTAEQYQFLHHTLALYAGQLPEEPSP
Put plainly: redox-dependent HePTP inhibition, mechanism study, biochemical, fluorescence (AID 2068). The assay is classed as functional.

Assay [6] addresses T4, Dual specificity protein phosphatase 6 (Rattus norvegicus, UniProt Q64346).
T4 sequence (Q64346 whole entry): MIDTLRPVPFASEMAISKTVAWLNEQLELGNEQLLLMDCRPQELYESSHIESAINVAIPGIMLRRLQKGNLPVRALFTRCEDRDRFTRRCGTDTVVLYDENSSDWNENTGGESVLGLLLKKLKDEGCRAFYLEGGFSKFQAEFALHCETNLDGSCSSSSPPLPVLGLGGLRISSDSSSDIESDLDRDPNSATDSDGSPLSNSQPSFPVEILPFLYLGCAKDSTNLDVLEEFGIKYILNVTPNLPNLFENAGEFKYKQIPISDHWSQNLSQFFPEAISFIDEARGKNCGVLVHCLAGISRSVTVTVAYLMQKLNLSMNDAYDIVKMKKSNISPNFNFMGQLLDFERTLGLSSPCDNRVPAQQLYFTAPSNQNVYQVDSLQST
It is filed as functional.

The target of assay [7] is T5, Low molecular weight phosphotyrosine protein phosphatase (Homo sapiens, UniProt P24666).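 Note: Dose-response confirmation assay measuring inhibition of LMPTP enzyme activity by fluorescence intensity read-out.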
T5 sequence (P24666 whole entry): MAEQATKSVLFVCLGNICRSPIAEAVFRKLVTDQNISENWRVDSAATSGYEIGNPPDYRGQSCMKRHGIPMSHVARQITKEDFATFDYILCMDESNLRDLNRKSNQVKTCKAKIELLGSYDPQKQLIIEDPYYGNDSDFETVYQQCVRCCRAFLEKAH
The assay is classed as functional. The settings on record: read-out: IC50_Mean.

The target of assay [8] is T6, Tyrosine-protein phosphatase non-receptor type 22 (Homo sapiens, UniProt Q9Y2R2).
T6 sequence (Q9Y2R2 whole entry): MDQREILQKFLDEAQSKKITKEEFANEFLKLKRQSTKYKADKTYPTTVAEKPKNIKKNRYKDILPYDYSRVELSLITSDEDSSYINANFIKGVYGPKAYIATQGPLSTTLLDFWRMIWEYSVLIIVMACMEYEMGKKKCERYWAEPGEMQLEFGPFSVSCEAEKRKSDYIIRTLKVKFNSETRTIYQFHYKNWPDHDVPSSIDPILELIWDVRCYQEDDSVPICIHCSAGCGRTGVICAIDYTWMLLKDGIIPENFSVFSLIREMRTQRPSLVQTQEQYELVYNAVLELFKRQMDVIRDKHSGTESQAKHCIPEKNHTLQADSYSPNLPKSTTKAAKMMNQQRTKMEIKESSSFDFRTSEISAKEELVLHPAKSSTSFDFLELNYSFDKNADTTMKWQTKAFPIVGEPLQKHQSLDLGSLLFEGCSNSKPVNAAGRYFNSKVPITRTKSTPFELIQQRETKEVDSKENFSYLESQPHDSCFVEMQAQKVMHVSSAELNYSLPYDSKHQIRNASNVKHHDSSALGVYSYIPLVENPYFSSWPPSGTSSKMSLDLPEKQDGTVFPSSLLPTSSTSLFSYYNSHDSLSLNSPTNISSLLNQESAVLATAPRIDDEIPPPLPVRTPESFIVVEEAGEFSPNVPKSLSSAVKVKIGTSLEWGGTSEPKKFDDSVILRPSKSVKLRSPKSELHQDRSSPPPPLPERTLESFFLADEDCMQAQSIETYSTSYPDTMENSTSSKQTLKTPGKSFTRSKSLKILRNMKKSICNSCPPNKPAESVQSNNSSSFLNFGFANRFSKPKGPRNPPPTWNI
Kind of assay: SAR LYP1 Fluorescent Assay using OMFP substrate for In Vitro dose response studies - Set 3. [Related pubchem assays (depositor defined):AID1779, AID1784, AID2140, AID2686]. It is filed as functional.

For assay [9], the target named is DNA (cytosine-5)-methyltransferase 1 (Homo sapiens, UniProt P26358). Kind of assay: DNMT1 methyltransferase inhibitors, confirmation, biochemical, fluorescent molecular beacon (AID 602386). The assay is classed as functional.
Assay [10] addresses Tyrosine-protein phosphatase non-receptor type 12 (Homo sapiens, UniProt Q05209). Put plainly: SAR Selectivity Analysis of small molecule inhibitors of PEST using pCAP in a fluorescence assay. [Related pubchem assays (depositor defined):AID1779, AID1784, AID2135]. The assay is classed as functional.
The target in assay [11] is T3, Tyrosine-protein phosphatase non-receptor type 7. Put plainly: HePTP (PTPN7) phosphatase inhibitor potency, SAR follow-up, biochemical, set 2 (AID 449736). It is filed as functional.
The target in assay [12] is T2, Dual specificity protein phosphatase 3. Kind of assay: SAR VHR1 Fluorescent Assay for In Vitro dose response studies. [Related pubchem assays (depositor defined):AID1654, AID1661, AID1878, AID1992, AID2004, AID2070, AID2085]. It is filed as functional.
Assay [13] has as its target T6, Tyrosine-protein phosphatase non-receptor type 22. Kind of assay: LYP (PTPN22) phosphatase inhibitor potency, SAR follow-up, biochemical, pCAP fluorogenic substrate, fluorescence, set 3 (AID 449727). It is filed as functional.
Assay [14] deals with T2, Dual specificity protein phosphatase 3. Kind of assay: MOA VHR1 Fluorescent secondary assay for identification of redox-state modulating compounds. [Related pubchem assays (depositor defined):AID1654, AID1661, AID1878, AID1957].
Assay [15] shares this target. Kind of assay: SAR VHR1 absorbance Assay for In Vitro dose response studies. [Related pubchem assays (depositor defined):AID1654, AID1661, AID1878, AID1992, AID2004].
Assay [16] addresses Acyl-homoserine lactone acylase PvdQ (Pseudomonas aeruginosa (strain LESB58), UniProt Q9I194). Put plainly: P. aeruginosa PvdQ acylase inhibitors, dose response, biochemical, fluorescence, plate reader and imaging, cherry-picks (AID 493231).
Assay [17] is described as follows: Luminescence Cell-Based Dose Retest to Confirm Inhibitors of Cancer Stem Cells. [Related pubchem assays (depositor defined):AID2717, AID2721]. The assay is classed as functional. Particulars: Homo sapiens.
The target in assay [18] is Neurotensin receptor type 1 (Homo sapiens, UniProt P30989). It is filed as functional.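 Note: Image-based confirmatory dose-response assay measuring agonist activity at NTR1; NTR1-expressing U2OS osteosarcoma cells imaged for beta-arrestin GFP spot formation; agonist potency where compounds increase beta-arrestin recruitment.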
Assay [19] has as its target T7, Rac GTPase-activating protein 1 (Homo sapiens, UniProt Q9H0H5).
T7 sequence (Q9H0H5 whole entry): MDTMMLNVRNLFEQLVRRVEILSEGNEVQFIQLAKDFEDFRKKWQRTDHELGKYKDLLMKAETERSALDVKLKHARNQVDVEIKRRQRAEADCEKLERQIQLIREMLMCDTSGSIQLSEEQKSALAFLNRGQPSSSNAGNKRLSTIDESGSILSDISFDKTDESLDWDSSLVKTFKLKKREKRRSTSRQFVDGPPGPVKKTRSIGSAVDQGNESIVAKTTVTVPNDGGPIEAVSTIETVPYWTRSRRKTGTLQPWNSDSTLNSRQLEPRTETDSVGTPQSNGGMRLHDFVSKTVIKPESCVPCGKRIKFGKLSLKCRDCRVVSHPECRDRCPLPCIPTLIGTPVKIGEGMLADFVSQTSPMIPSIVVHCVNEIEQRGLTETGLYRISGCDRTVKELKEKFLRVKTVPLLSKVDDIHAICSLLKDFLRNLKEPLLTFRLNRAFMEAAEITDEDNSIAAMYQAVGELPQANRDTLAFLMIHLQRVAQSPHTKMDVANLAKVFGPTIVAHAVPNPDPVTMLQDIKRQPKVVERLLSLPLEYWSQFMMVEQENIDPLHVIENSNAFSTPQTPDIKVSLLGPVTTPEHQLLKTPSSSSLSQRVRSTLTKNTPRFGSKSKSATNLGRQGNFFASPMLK
Put plainly: MgcRacGAP GTPase-activating activity inhibitors, confirmation, biochemical, ADP Hunter fluorescence, primary and confirmatory (AID 624330). It is filed as functional.

Assay [20] is described as follows: HeLa cell cytotoxicity, dose response, cytotoxicity control for MgcRacGAP inhibitor project (AID 624300). It is filed as functional.
The target of assay [21] is Scavenger receptor class B member 1 (Mus musculus, UniProt Q61009). Kind of assay: inhibitors of SR-BI mediated HDL lipid uptake, dose response, ldlA[mSR-BI] cells, fluorescence, cherry pick (AID 493194).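 Note: cellular uptake of fluorescent DiI-labeled HDL measured as cell fluorescence.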 The assay is classed as functional, cell-based.
The target of assay [22] is Signal transducer and activator of transcription 3 (Homo sapiens, UniProt P40763). Kind of assay: STAT3 activators, late-stage profile, late-stage follow-up, cell-based, STAT1 reporter, BCL3 qPCR, cytotoxicity, panel member STAT3 Activation (AID 2049). (In general: In qPCR the cycle at which signal appears reflects the starting amount.)
Assay [23] concerns the target Peroxisome proliferator-activated receptor gamma (Homo sapiens, UniProt P37231). Put plainly: PPARg ligand-binding domain binders, dose response, PPARg partial agonist project, biochemical, TR-FRET, LanthaScreen (AID 504446).
For assay [24], the target named is T8, Eukaryotic translation initiation factor 2-alpha kinase 3 (Homo sapiens, UniProt Q9NZJ5). Put plainly: Dose response cell-based high-throughput screening assay to measure PERK inhibition. [Related pubchem assays: 1416 ]. The assay is classed as functional.
The target of assay [25] is T8, Eukaryotic translation initiation factor 2-alpha kinase 3. Kind of assay: Counterscreen assay for PERK inhibitors: Dose response cell-based high throughput screening assay to measure inhibition of PERK at 6 hours. [Related pubchem assays: 1522, 1416 ]. The assay is classed as functional.

T2 sequence (P51452 whole entry): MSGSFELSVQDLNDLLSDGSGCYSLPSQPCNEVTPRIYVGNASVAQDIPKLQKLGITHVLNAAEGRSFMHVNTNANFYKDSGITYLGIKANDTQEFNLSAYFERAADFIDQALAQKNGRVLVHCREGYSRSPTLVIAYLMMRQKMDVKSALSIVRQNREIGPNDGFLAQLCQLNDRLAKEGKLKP
T8 sequence (Q9NZJ5 whole entry): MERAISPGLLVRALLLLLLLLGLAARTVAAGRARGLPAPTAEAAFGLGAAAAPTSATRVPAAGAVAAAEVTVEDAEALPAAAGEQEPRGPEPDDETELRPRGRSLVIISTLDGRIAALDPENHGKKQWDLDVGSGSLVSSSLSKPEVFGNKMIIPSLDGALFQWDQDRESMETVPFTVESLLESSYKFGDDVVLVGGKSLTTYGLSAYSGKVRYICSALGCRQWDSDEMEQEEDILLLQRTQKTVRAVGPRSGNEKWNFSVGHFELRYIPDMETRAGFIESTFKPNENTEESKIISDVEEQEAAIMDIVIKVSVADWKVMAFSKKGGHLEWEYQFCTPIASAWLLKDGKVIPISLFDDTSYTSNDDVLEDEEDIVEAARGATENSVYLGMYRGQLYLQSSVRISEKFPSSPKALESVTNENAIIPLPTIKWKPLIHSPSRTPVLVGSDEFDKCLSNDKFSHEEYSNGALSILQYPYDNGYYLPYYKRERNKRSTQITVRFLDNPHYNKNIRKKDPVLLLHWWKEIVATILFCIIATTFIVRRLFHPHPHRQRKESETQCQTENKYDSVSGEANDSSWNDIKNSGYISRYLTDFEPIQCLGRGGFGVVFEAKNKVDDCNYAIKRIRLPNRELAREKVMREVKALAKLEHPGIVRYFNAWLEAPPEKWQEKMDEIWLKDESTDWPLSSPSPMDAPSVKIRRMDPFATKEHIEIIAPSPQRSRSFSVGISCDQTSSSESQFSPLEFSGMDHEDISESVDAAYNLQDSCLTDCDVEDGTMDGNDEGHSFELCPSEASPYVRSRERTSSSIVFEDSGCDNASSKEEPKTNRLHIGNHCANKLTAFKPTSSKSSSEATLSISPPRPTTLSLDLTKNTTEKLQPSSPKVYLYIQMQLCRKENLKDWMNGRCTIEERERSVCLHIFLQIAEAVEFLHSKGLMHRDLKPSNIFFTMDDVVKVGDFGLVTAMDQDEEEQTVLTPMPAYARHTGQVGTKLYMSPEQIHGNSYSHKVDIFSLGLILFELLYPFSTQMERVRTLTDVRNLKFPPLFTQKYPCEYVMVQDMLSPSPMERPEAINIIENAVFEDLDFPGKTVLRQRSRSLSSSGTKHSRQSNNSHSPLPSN
Sequence of Neurotensin receptor type 1 (P30989 whole entry): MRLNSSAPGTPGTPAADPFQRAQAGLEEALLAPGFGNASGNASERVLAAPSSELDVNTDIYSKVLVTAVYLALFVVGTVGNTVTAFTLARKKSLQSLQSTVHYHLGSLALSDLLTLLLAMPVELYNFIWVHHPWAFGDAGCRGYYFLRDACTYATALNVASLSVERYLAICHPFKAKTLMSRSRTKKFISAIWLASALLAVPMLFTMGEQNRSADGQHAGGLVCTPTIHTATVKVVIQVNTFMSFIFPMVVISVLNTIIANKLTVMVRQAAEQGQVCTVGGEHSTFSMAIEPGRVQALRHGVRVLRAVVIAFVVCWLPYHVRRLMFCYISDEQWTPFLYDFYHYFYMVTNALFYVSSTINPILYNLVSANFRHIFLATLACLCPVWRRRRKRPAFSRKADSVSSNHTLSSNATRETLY
Sequence of Tyrosine-protein phosphatase non-receptor type 12 (Q05209 whole entry): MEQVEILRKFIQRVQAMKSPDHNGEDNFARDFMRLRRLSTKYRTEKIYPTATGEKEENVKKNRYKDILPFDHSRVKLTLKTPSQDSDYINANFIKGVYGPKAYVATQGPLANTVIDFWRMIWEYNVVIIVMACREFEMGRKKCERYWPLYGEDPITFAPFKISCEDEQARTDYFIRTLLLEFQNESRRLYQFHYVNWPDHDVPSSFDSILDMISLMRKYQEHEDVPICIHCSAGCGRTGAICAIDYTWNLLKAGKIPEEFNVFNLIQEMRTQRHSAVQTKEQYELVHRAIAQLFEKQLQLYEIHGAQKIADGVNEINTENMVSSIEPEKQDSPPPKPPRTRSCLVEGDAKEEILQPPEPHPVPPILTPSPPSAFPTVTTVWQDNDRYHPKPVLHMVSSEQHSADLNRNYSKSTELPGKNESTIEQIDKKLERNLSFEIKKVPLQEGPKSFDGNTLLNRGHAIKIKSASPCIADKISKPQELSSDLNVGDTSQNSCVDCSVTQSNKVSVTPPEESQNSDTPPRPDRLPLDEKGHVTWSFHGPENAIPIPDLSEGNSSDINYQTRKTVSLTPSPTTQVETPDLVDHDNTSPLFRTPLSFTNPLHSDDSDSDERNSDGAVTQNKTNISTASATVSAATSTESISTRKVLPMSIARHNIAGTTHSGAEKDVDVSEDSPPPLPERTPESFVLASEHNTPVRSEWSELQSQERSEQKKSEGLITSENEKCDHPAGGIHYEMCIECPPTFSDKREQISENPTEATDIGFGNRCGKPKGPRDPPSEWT
Sequence of Acyl-homoserine lactone acylase PvdQ (Q9I194 24-193 limits assumed): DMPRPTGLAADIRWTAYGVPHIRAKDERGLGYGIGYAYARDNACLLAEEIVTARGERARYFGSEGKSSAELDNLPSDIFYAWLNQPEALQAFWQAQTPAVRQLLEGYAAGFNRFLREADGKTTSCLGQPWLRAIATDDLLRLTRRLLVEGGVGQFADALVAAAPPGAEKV
Sequence of Acyl-homoserine lactone acylase PvdQ (Q9I194 217-762 limits assumed): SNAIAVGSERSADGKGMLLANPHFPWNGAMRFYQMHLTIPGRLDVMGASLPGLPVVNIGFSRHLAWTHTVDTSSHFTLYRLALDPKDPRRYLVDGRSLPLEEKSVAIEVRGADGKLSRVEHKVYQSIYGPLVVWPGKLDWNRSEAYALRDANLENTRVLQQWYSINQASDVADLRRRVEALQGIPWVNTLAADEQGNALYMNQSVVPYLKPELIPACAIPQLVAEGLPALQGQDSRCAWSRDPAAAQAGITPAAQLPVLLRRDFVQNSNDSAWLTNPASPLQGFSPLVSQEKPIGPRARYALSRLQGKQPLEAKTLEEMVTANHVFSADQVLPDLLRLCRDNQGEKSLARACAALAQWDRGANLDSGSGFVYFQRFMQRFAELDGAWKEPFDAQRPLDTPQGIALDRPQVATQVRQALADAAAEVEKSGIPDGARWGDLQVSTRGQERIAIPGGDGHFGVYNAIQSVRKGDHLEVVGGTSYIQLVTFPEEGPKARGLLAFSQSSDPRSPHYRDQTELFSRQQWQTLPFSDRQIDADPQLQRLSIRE
Sequence of Signal transducer and activator of transcription 3 (P40763 whole entry, the tested form may be a part): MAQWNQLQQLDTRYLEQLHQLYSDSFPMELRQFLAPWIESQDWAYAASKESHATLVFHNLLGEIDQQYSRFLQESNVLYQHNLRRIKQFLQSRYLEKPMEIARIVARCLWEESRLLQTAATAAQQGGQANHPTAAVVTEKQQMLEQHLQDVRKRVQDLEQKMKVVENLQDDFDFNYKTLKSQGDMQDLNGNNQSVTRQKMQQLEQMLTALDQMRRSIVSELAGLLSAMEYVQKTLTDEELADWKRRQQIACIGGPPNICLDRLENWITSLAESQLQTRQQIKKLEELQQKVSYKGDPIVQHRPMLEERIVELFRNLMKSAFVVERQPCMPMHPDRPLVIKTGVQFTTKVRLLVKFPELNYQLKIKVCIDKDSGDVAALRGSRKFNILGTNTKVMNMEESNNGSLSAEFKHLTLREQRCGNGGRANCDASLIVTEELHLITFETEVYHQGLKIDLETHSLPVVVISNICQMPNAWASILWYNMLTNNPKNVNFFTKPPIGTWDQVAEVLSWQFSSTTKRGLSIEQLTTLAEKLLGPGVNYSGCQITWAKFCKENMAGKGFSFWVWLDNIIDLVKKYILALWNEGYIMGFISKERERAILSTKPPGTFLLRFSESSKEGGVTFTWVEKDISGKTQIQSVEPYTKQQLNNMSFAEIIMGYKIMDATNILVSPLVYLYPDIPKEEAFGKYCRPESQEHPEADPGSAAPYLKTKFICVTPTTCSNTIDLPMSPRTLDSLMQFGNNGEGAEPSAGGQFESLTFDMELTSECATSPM
Sequence of Neuropeptides B/W receptor type 1 (P48145 whole entry): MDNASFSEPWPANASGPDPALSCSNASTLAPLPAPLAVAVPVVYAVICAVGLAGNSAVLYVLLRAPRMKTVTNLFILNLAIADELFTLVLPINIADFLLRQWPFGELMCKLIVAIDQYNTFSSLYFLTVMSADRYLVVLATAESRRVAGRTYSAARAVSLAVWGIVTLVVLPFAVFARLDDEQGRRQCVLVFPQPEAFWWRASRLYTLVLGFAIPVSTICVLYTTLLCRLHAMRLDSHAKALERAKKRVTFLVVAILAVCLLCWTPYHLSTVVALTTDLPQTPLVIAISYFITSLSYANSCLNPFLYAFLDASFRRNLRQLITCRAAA
Sequence of Peroxisome proliferator-activated receptor gamma (P37231 whole entry, the tested form may be a part): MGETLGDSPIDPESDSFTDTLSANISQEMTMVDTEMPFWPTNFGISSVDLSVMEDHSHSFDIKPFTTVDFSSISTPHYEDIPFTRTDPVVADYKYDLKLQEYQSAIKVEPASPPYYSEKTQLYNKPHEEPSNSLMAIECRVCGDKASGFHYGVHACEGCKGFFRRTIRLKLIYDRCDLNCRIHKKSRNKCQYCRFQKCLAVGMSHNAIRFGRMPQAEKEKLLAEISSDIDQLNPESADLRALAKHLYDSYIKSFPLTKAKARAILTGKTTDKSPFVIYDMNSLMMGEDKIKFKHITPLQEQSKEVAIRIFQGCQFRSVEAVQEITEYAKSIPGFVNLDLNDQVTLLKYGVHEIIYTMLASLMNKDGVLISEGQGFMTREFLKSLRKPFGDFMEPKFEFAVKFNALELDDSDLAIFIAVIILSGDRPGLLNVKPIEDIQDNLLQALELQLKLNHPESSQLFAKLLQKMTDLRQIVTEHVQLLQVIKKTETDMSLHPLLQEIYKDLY

Turning to `CS(=O)(=O)c1ccc2nc(NC(=O)Nc3ccccc3F)sc2c1`, the EC50 (commonly the concentration giving half of the maximal effect) in [1] is > 67.5 µM (inactive). Further, the IC50 in assay [2] and in assay [3] was > 43.8 µM (not active) each time.
On to `Cc1cc(/C=C2/SC(=S)NC2=O)c(C)n1-c1cccc(Cl)c1`, for which, in assay [4], the Ki (usually a dissociation constant, usually derived from enzyme kinetics or from competition with a known ligand) was 82 µM (inactive).
In the case of `CC1=C(C(=O)OC(C)C)C(c2ccc(Cl)cc2)n2c(sc(=Cc3ccc(OCC(=O)O)cc3)c2=O)=N1` (stereo not given), the IC50 in assay [5] is 0.391 µM (active); in assay [6], 41.8 µM (active); in assay [7] it was 6.66 µM (active); in assay [8], 4.01 µM (active); in assay [9], 5.43 µM (active); in assay [10] it was 1.68 µM (active). In addition, the IC50 in assay [11] was 0.304 µM (active); in [12], 12.3 µM (active); in [13], 3.63 µM (active); in assay [14], 1.93 µM (active); in assay [15] it was 0.967 µM (active).
Take `O=[N+]([O-])c1ccc(N2CCSCC2)cc1`: the AC50 (usually the midpoint of the concentration-response curve, whichever way the signal moves) in assay [16] was > 100 µM (inactive).
Take `CC1=C(C(=O)OC2CCCCCCC2)C(c2cc3c(cc2Br)OCO3)CC(=O)N1` (stereo not given): in assay [17], the AC50 was 3.59 µM (active). Further, the concentration for a half-maximal effect (EC50) in [18] is 18.2 µM (active).
In the case of `C=C(CN(C)C)C(=O)c1ccc(OC2OC(COC(C)=O)C(OC(C)=O)C(OC(C)=O)C2OC(C)=O)cc1` (stereo not given), the IC50 in assay [19] was 162 µM (active). For the same molecule, the CC50 (usually the concentration at which the toxic effect on the cells reaches its halfway point) in assay [20] is 100 µM (active). For the same molecule, in assay [21], the AC50 was 6.87 µM (active).
Regarding `CN(C(=O)c1cc(C2CC2)on1)c1ccccc1`, the EC50 in [22] was > 55.7 µM (inactive).
As to `O=C(O)CCN1C(=O)/C(=C/c2ccccc2Cl)SC1=S`, the IC50 in [23] was 2 µM (active).
As to `CCCCOC(=O)C1C2C=C[C@]3(CN(CCCOC)C(=O)[C@H]13)O2` (stereo not given in full), the EC50 in assay [24] and in [25] was > 55.7 µM (not active) each time.

For the origin of these results see ChEMBL document CHEMBL1201862, “PubChem BioAssay data set” (2004).
